Test in all cases: NCI-60 cell line screen, 48 h
Assay [1] deals with TK-10 renal.
The test system of assay [2] is NCI-H226 lung.
The test system of assay [3] is BT-549 breast.
Assay [4] has as its system SF-268 CNS.
The subject of assay [5] is HL-60(TB) leukemia.
The subject of assay [6] is OVCAR-3 ovarian.
For assay [7], the system named is MDA-N.
In assay [8] the test system is SK-MEL-2 melanoma.
Assay [9] relates to UACC-62 melanoma.
Assay [10] relates to SR leukemia.
Assay [11] has as its system ACHN renal.
The subject of assay [12] is NCI-H23 lung.
In assay [13] the test system is HCT-116 colon.
The subject of assay [14] is NCI-H522 lung.
The test system of assay [15] is SF-539 CNS.
Assay [16] has as its system MCF7 breast.
Assay [17] concerns A498 renal.
Assay [18] deals with OVCAR-4 ovarian.
Assay [19] concerns KM12 colon.

Structures are written as SMILES.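 How tested: cells in 96-well plates exposed to compound for 48 hours at five concentrations. TGI marks complete inhibition of growth.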

With `O=Cc1cn(CCCCCCCCCCCCn2cc(C=O)c3ccccc32)c2ccccc12`, the TGI in [1], in [2], in [3], in assay [4], in assay [5] and in assay [6] was more than 100 µM in each case. The TGI in assay [7], in assay [8], in assay [9], in assay [10], in [11] and in assay [12] was more than 100 µM each time. The TGI in [13], in [14], in assay [15], in [16] and in assay [17] was more than 100 µM throughout.

`CC(=O)O[C@H]1C[C@H]2[C@@H](OC(C)=O)/C=C3\C[C@](C)(C(=O)[C@H](O)C(=C1C)C2(C)C)[C@@H](O)C[C@@H]3OC(=O)[C@H](O)[C@H](c1ccccc1)N(C)C`: the TGI in assay [18], in assay [1], in assay [2], in [3], in assay [4] and in assay [5] was more than 100 µM throughout. For the same compound, the TGI in assay [6], in assay [7], in assay [9], in [10], in assay [11] and in assay [12] was more than 100 µM throughout. For the same compound, the TGI in assay [13], in assay [14], in assay [19], in [15], in assay [16] and in assay [17] was more than 100 µM in each case.

Regarding `O=C1NC(=O)C(c2c[nH]c3ccccc23)=C1c1cnc[nH]1`, the TGI is more than 100 µM in [18]; more than 100 µM in [1]; 9.4 µM in assay [2]; more than 100 µM in [3]; more than 100 µM in assay [4]; more than 100 µM in assay [5]. Besides, the TGI in [6], in assay [7], in [8], in assay [10], in assay [11] and in [13] was more than 100 µM each time. In addition, the TGI in [14], in [19], in assay [15], in [16] and in [17] was more than 100 µM throughout.

With `CC(C)(Cl)C(Br)CCC(C)(Cl)C(Br)CBr` (stereo not given), the TGI is 87.3 µM in [18]; 99.6 µM in assay [1]; 60.6 µM in assay [2]; 42.9 µM in assay [3]; more than 100 µM in assay [4]; 35.4 µM in assay [5]. For the same compound, the TGI in [6] was 41.9 µM; in assay [7], 81.9 µM; in assay [8], 35.4 µM; in [9] it was more than 100 µM; in [10], 22.2 µM; in assay [11], 52.6 µM. Also, the TGI in assay [12] stood at 55.6 µM; in assay [13], 47.5 µM; in assay [14], 35.8 µM; in assay [15] it was 49.7 µM; in assay [16], 41.7 µM; in assay [17], 49.6 µM.

As to `Nc1ccc(Oc2ccc(C34CC5CC6C3CC3CC4C(C5)C6(c4ccc(Oc5ccc(N)cc5)cc4)C3)cc2)cc1`, the TGI in assay [18] was more than 100 µM; in assay [1], more than 68.6 µM; in [2], 71.4 µM; in assay [3], more than 82.8 µM; in assay [4], more than 72 µM; in [5], 22 µM. The TGI is 29.7 µM in [6]; 19.1 µM in assay [7]; 23.6 µM in assay [8]; more than 87.9 µM in assay [9]; 40.1 µM in assay [10]; more than 100 µM in assay [11]. Besides, the TGI in [12] is more than 82.9 µM; in assay [13], 41.1 µM; in assay [14], 47.7 µM; in assay [19] it was more than 100 µM; in assay [16], more than 100 µM; in assay [17] it was 55.7 µM.

Consider `O=C(C=P(c1ccccc1)(c1ccccc1)c1ccccc1)c1ccc(-c2cccc([N+](=O)[O-])c2)s1`, for which the TGI is more than 100 µM in [18]; more than 100 µM in [1]; more than 100 µM in assay [3]; more than 100 µM in [4]; 59.6 µM in assay [5]; more than 100 µM in assay [6]. Also, the TGI in [7], in assay [9], in [10], in assay [11], in [12] and in assay [13] was more than 100 µM throughout. The TGI was more than 100 µM in assay [14]; more than 100 µM in assay [19]; more than 100 µM in [15]; more than 100 µM in assay [16]; 81.9 µM in assay [17].

Regarding `CCCCC1=NNC(=O)C1`, the TGI in assay [18], in [2], in assay [3], in [5], in assay [6] and in assay [7] was more than 100 µM in each case. For the same compound, the TGI in assay [8], in assay [9], in assay [10], in assay [11], in assay [12] and in [13] was more than 100 µM in each case. Also, the TGI in [14], in [19], in assay [15], in [16] and in [17] was more than 100 µM each time.

In the case of `CC(=O)Nc1ccc(N2C(=O)/C(=C\c3cccc(Oc4ccccc4)c3)S(=O)(=O)C2c2ccccc2)cc1` (stereo not given), the TGI was more than 100 µM in assay [18]; more than 100 µM in assay [1]; more than 100 µM in assay [2]; more than 100 µM in [3]; 56.6 µM in assay [5]; more than 100 µM in [6]. The TGI in assay [7] was 95.3 µM; in [8] it was more than 100 µM; in [9], more than 100 µM; in [10], more than 100 µM; in assay [11], more than 100 µM; in assay [12], more than 100 µM. Moreover, the TGI in [13] was more than 100 µM; in assay [14], more than 100 µM; in [19] it was more than 100 µM; in assay [15] it was 62.5 µM; in [16], more than 100 µM; in assay [17], more than 100 µM.

These data come from PubChem BioAssay (NCI).
